Data on 20 compounds can be found in patent EP0216127B1, “6-Phenoxymethyl-4-hydroxytetrahydropyran-2-ones, process for their preparation, their use as medicines, pharmaceutical compositions and intermediates” (HOECHST AKTIENGESELLSCHAFT, priority 1985, dated 1987).

Like-named read-outs stand apart in the source and are kept apart here.

The conditions of experiment [1]: im Humanversuch; cited from earlier work.
For experiment [2] the following is noted: an der Ratte; cited from earlier work.
Experiment [3] addresses T1, HMG-CoA-Reduktase (Rattus norvegicus, UniProt P51639).
T1 construct: solubilisierten Enzympräparationen aus Lebermikrosomen von Ratten; from tissue; host or cells: rat liver microsomes (rats induced with cholestyramine after day-night rhythm shift)
T1 sequence (P51639 1-887): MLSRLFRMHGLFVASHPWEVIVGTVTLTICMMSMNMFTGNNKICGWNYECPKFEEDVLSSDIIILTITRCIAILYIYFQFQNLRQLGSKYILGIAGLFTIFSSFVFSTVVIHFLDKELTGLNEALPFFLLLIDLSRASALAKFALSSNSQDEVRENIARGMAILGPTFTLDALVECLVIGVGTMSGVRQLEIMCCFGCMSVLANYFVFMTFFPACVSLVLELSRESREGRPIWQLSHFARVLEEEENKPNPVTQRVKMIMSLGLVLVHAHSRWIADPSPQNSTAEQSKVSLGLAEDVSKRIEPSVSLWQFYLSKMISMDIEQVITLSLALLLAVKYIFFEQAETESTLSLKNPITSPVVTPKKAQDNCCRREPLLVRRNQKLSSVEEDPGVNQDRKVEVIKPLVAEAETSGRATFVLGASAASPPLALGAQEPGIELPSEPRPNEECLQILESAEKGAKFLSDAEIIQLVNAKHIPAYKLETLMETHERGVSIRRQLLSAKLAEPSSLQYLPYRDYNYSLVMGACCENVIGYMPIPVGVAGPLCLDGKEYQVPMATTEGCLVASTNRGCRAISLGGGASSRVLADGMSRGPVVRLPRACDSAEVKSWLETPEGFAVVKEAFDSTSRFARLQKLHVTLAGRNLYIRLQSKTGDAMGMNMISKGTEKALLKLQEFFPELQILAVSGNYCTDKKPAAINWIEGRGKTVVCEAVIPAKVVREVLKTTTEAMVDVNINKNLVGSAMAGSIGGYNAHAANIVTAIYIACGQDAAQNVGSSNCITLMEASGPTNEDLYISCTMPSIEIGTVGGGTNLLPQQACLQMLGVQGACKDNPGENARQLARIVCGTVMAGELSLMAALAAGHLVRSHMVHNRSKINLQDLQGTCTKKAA
The experiment in a line: Inhibition of HMG-CoA reductase activity in solubilised enzyme preparations from rat liver microsomes. To be noted: solubilised enzyme from liver microsomes of cholestyramine-induced rats; substrate (S,R)14C-HMG-CoA; mean of 3 parallel samples; read-out: IC50-Wert M. It counts as biochemical, Ratten. From the text: 1) Inhibierung der HMG-CoA-Reduktase-Aktivität an solubilisierten Enzympräparationen aus Ratten-Lebermikrosomen
Die HMG-CoA-Reduktase-Aktivität wurde an solubilisierten Enzympräparationen aus Lebermikrosomen von Ratten gemessen, die nach Umstellung im Tag-Nacht-Rhythmus mit Cholestyramin (@Cuemid) induziert wurden. Als Substrat diente (S,R)^14C-HMG-CoA, die Konzentration von NADPH wurde während der Inkubation durch ein regenerierendes System aufrechterhalten. Die Abtrennung von ^14C-Me- valonat von Substrat und anderen Produkten (z.B. ^14C-HMG) erfolgte über Säulenelution, wobei das Elutionsprofil jeder Einzelprobe ermittelt wurde. Auf die ständige Mitführung von ^3H-Mevalonat wurde verzichtet, weil es bei der Bestimmung um die Relativangabe der Hemmwirkung handelt. In eine Versuchsreihe wurden jeweils die enzymfreie Kontrolle, der enzymhaltige Normalansatz (= 100%) und solche mit Präparatezusätzen zusammen behandelt. Jeder Einzelwert wurde als Mittelwert aus 3 Parallelproben gebildet. Die Signifikanz der Mittelwertsunterschiede zwischen präparatefreien und präparatehaltigen Proben wurde nach dem t-Test beurteilt. Nach der oben beschriebenen Methode wurden von den erfindungsgemäßen Verbindungen z.B. folgende Hemmwerte auf die HMG-CoA-Reduktase ermittelt (IC50-Wert M = molare Konzentration der Verbindung, die für eine 50%ige Hemmung erforderlich ist): […]
For orientation: Liver microsomes are vesicles of endoplasmic reticulum, rich in cytochrome P450 enzymes.

For experiment [4], the target named is T2, HMG-CoA-Reduktase (Mus musculus, UniProt Q01237).
T2 construct: dann wurde die HMG-CoA-Reduktaseaktivität der Zellen, modifiziert nach Chang et al; endogenous in cells; host or cells: L cells (fibroblasts)
T2 sequence (Q01237 1-887): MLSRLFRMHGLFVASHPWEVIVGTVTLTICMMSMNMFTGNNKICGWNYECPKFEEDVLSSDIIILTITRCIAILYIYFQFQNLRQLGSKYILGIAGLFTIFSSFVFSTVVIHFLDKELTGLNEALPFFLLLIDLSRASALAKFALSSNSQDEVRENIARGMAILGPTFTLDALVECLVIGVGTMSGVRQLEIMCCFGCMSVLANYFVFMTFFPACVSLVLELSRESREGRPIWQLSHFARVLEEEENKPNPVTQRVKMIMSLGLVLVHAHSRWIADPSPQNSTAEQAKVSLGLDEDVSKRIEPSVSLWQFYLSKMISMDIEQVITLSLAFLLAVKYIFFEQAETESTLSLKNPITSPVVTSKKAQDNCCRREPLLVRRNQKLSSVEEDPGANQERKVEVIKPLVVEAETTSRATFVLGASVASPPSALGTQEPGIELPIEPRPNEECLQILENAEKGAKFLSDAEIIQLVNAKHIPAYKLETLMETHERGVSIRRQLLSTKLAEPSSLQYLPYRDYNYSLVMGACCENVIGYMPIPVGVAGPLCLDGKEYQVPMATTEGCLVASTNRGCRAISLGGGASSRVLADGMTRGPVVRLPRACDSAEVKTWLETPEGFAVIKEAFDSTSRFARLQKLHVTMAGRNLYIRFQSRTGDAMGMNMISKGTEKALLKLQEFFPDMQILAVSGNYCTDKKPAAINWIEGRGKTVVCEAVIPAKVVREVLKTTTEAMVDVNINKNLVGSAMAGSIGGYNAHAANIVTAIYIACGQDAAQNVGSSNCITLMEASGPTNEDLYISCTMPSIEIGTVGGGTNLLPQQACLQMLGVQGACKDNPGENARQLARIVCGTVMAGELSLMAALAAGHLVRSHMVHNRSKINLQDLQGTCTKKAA
The experiment in a line: Suppression or inhibition of HMG-CoA reductase in cell cultures of fibroblasts (L cells). To be noted: 3 h incubation of confluent L-Zellen in lipoprotein-free medium; molar concentration for 50% inhibition of HMG-CoA reductase activity. In kind it is cell-based. An excerpt:
2. Supprimierung bzw. Inhibierung der HMG-CoA-Reduktase in Zellkulturen von Fibroblasten
Monolayers von Fibroblasten (L-Zellen) in lipoproteinfreiem Nährmedium wurden mit entsprechenden Konzentrationen der Prüfsubstanzen eine bestimmte Zeit (z.B. 3 Stunden) inkubiert, dann wurde die HMG-CoA-Reduktaseaktivität der Zellen, modifiziert nach Chang et al. (J. Biol. Chem. 256, 6174 (1981) bestimmt. Dazu wurden die Zellextrakte mit D, L [^3H]-HMG-CoA inkubiert und das unter der Einwirkung der vorhandenen HMG-CoA-Reduktaseaktivität aus den Zellen gebildete Produkt [3H]-Mevalonat nach Cyclisierung zu [^3H]-Mevalonolacton dünnschichtchromatographisch vom Ausgangsprodukt getrennt und unter Verwendung eines internen Standards von ^14C-Mevalonat die Menge des in der Zeiteinheit gebildeten [3H]-Mevalonats, bezogen auf Zellproteinmenge bestimmt. Die unter Zusatz einer bestimmten Konzentration eines Prüfpräparates gefundene HMG-CoA-Reduktaseaktivität der Zellkultur wurde prozentual auf jene einer gleichbehandelten ohne Prüfpräparat, jedoch gleicher Lösungsmittelkonzentration, bezogen.
Unter der Bedingung einer dreistündigen Inkubationszeit konfluenter L-Zellen im lipoproteinfreien Nährmedium mit den untersuchten Verbindungen wurden folgende für eine 50%ige Hemmung der HMG-CoA-Reduktaseaktivität (ICso) erforderliche molare Konzentration der Prüfpräparate ermittelt: […]

`CC(O)(CC(=O)O)CC(=O)O` [3-Hydroxy-3-methyl-glutarsäure]: the “cholesterinsenkende Wirkung” value in experiment [1] and in experiment [2] was “signifikante cholesterinsenkende Wirkung” in each case.

As for `Cc1cc(Cl)cc(C(c2ccc(F)cc2)c2ccc(F)cc2)c1OC[C@@H]1C[C@@H](O)CC(=O)O1` [44 bb], on HMG-CoA-Reduktase [3], the IC50 was 100 nM. Same read-out and setting: for `O=C1C[C@H](O)C[C@@H](COc2c(Cl)cc(Cl)cc2C(CCOc2ccc(F)cc2)c2ccc(F)cc2)O1` (stereo partly drawn) [44 dd] the value was 150 nM.

On to `Cc1cc(C(c2ccc(F)c(C)c2)c2cc(Cl)cc(C)c2OC[C@@H]2C[C@@H](O)CC(=O)O2)ccc1F` [44 hh], for which the IC50 at HMG-CoA-Reduktase [3] is 50 nM. As for `Cc1cc(Cl)cc(CCCOc2ccc(F)cc2)c1OC[C@@H]1C[C@@H](O)CC(=O)O1` [44 i], the IC50 on HMG-CoA-Reduktase [3] was 75 nM; against HMG-CoA-Reduktase [4], 10000 nM.

Regarding `C=CCc1cc(Cl)cc(CCCOc2ccc(F)cc2)c1OC[C@@H]1C[C@@H](O)CC(=O)O1` [44 j], the IC50 came to 460 nM on HMG-CoA-Reduktase [3] and 100000 nM against HMG-CoA-Reduktase [4].

`O=C1C[C@H](O)C[C@@H](COc2c(Cl)cc(Cl)cc2CC2CCCCC2)O1` [44 kk]: on HMG-CoA-Reduktase [3], the IC50 stood at 25 nM.

Turning to `CC(C)(C)C(=O)OCCCc1cc(Cl)cc(CCCOc2ccc(F)cc2)c1OC[C@@H]1C[C@@H](O)CC(=O)O1` [44 l], on HMG-CoA-Reduktase [3], the IC50 amounted to 7000 nM. `Cc1cc(C)c(OC[C@@H]2C[C@@H](O)CC(=O)O2)c(CCc2ccc(F)cc2)c1` [44 m]: the IC50 at HMG-CoA-Reduktase [3] came out at 530 nM. On to `O=C1C[C@H](O)C[C@@H](COc2c(Cl)cc(Cl)cc2-c2ccccc2)O1` [44 mm], for which the IC50 on HMG-CoA-Reduktase [3] was 190 nM. Same read-out and setting: for `O=C1C[C@H](O)C[C@@H](COc2c(Cl)cc(Cl)cc2C(=O)C2CCCCC2)O1` [44 nn] the value was 190 nM. Take `Cc1cc(C)c(OC[C@@H]2C[C@@H](O)CC(=O)O2)c(C(c2ccc(F)cc2)c2ccc(F)cc2)c1` [44 q]: the IC50 at HMG-CoA-Reduktase [3] came to 70 nM; against HMG-CoA-Reduktase [4] it was 50000 nM. Consider `Cc1cc(C)c(OC[C@@H]2C[C@@H](O)CC(=O)O2)c(C(C)c2ccc(F)cc2)c1` (stereo partly drawn) [44 r], for which, at HMG-CoA-Reduktase [3], the IC50 is 160 nM.

Take `Cc1cc(C)c(OC[C@@H]2C[C@@H](O)CC(=O)O2)c(Cc2ccc(F)cc2)c1` [44 s]: on HMG-CoA-Reduktase [3], the IC50 stood at 400 nM. Same read-out and setting: for `Cc1cc(C)c(OC[C@@H]2C[C@@H](O)CC(=O)O2)c(CCOc2ccc(F)cc2)c1` [44 t] the value was 500 nM; for `Cc1cc(C)c(OC[C@@H]2C[C@@H](O)CC(=O)O2)c(C(CC(C)C)c2ccc(F)cc2)c1` (stereo partly drawn) [44 u], 140 nM. As to `COc1ccc(C(c2ccc(F)cc2)c2cc(C)cc(C)c2OC[C@@H]2C[C@@H](O)CC(=O)O2)cc1` (stereo partly drawn) [44 v], the IC50 at HMG-CoA-Reduktase [3] was determined as 100 nM; against HMG-CoA-Reduktase [4] it was 40000 nM. The corresponding values for `Cc1cc(Cl)cc(CCCOc2ccc(Cl)cc2)c1OC[C@@H]1C[C@@H](O)CC(=O)O1` [44 x] are 50 nM and 14000 nM.

As for `Cc1cc(Cl)cc(CC2CCCCC2)c1OC[C@@H]1C[C@@H](O)CC(=O)O1` [44 y], the IC50 at HMG-CoA-Reduktase [3] is 75 nM; on HMG-CoA-Reduktase [4], 15000 nM. Turning to `Cc1cc(C)c(OC[C@@H]2C[C@@H](O)CC(=O)O2)c(CC2CCCCC2)c1` [44 z], at HMG-CoA-Reduktase [3], the IC50 is 100 nM.

As usually defined, the IC50 is the concentration that inhibits the measured activity by half.
